Series [1] has as its target T1, BMX (Homo sapiens, UniProt P51813).
T1 sequence (P51813 1-675): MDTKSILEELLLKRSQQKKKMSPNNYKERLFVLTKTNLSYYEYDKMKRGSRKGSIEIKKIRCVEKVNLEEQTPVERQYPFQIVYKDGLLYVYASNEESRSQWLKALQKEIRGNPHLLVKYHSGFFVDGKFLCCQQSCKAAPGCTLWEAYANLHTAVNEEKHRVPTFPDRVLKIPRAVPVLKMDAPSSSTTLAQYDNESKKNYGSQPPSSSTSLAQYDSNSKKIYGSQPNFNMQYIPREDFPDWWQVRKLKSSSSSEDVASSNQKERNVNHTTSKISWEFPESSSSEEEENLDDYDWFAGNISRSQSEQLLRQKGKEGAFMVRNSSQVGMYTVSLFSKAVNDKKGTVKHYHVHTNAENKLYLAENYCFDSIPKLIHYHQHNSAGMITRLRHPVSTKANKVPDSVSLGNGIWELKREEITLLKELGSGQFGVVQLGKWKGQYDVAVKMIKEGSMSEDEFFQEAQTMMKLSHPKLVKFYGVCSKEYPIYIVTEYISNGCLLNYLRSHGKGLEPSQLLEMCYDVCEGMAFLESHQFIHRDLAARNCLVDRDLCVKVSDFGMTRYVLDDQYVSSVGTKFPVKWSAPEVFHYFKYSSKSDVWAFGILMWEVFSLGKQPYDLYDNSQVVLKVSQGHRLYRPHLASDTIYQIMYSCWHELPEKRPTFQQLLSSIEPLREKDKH
In words: BMX biochemical activity assay (HTRF, phosphorylation of a biotinylated peptide). On the technique in general: In TR-FRET formats the signal depends on donor and acceptor labels being close together.

The next series addresses PIK3CA (Homo sapiens, UniProt P42336). In words: KINOMEscan binding. The note with it: read-out: % Ctrl PIK3CA.
A further series concerns the target ITK (Homo sapiens, UniProt Q08881). In words: KINOMEscan binding. Particulars: read-out: % Ctrl ITK.
The subject of series [2] is LNCaP cells. In words: LNCaP cell growth assay (CellTiter-Glo, 96 h). It is filed as cell-based. Particulars: Homo sapiens, read-out: GI50 LNCaP.
Description: (§1) GI50 values are reported in μM and are the mean of three individual experiments performed in triplicate. N.d., non-determined, no growth inhibition observed within the concentrations tested.
(§2) Cellular activity Assay: LNCaP and PC-3 Cell Growth Assay
(§3) Cells were seeded in white, opaque-bottom 96-well plates at 5000 cells/well (LNCaP) or 2000 cells/well (PC-3) in a total volume of 100 µL of culture media.
(§4) fold) in 100 µL media were added to the cells 24 hours later. After 96 hours incubation cellular viability was assessed by CellTiter-Glo® (Promega) according to the manufacturer’s instructions. The values were normalized to vehicle and IC50 was calculated using GraphPad
A further series can be described thus: in vitro. Particulars: PAMPA. A general note: The PAMPA barrier holds no transporters, so it reflects passive diffusion.
For series [3] the following is noted: pH 6.8.
Excerpt: (§5) For assessment of drug permeability, we relied on parallel artificial membrane permeability assay (PAMPA) performed at Pion Inc. with the PAMPA Evolution™ instrument (Table S1, ESI ^†).
(§6) methods (ESOL model1 and Ali et al.2) PAMPA: Pe is effective permeability (x10-6 cm/sec)
(§7) measured directly from assay at pH 6.8 and %R is membrane retention.
(§8) as the average of quadruplicates. Und label refers to compounds with extremely low solubility
(§9) for which UV limits were below the detection limits therefore considered undetected.
(§10) Compounds were labelled as high permeability (green), medium permeability (orange) or low
(§11) Artificial Membrane Permeability (PAMPA):
(§12) The PAMPA Evolution™ instrument was used to determine permeability, at Pion Inc. In
(§13) PAMPA, a sandwich is formed such that each composite well is divided into two chambers,
(§14) measured at pH 6.8 in the donor compartment using low-binding, low UV Prisma buffer. The
(§15) drug-free acceptor compartment was filled with acceptor sink buffer containing a scavenger at
(§16) the start of the test. The proprietary scavenger mimics serum proteins and blood circulation,
(§17) thus creating sink conditions. Aqueous solutions of studied compounds are prepared by diluting
(§18) and thoroughly mixing 3 µL of DMSO stock in 600 µL of Prisma HT buffer. Final
(§19) concentration of organic solvent (DMSO) in aqueous buffer is ≤ 0.5% (v/v). The reference
(§20) solution is identical to the donor at time zero, so that any surface adsorption effects from the
(§21) plastic ware is compensated. The PAMPA sandwich was assembled and allowed to incubate
(§22) for ~15 hours. The solutions in the donor compartment were un-stirred within duration of the
(§23) experiment. Thus, the thickness of the aqueous boundary layer expected to be about 1000 µm.
(§24) The sandwich was then separated, and both the donor and receiver compartments were assayed
(§25) for the amount of drug present by comparison with the UV spectrum obtained from reference
In the next series the target is MERTK (Homo sapiens, UniProt Q12866). In words: KINOMEscan binding. Particulars: read-out: % Ctrl MERTK.
Another series deals with BTK (Homo sapiens, UniProt Q06187). In words: BTK biochemical activity assay (radiometric, KinaseProfiler). The note with it: for IC50: duplicate, mean ± S.D., read-out: BTK inhibition IC50. Further details: purchased Eurofins DiscoverX KinaseProfiler (contract assay).
The next series has as its system PC3 cells. In words: PC-3 cell growth assay (CellTiter-Glo, 96 h). It is filed as cell-based. The note with it: Homo sapiens, read-out: GI50 PC3. On the technique in general: Cellular ATP, detected with luciferase, serves as a proxy for viable cell number.
In another series the target is TXK (Homo sapiens, UniProt P42681). In words: KINOMEscan binding. Particulars: read-out: % Ctrl TXK.
The target of series [4] is T2, recombinant human BMX protein (hBMX) (Homo sapiens, UniProt P51813).
T2 construct: Crystallization, data collection, and structure determination of BMX catalytic domain in; made in house; host or cells: Sf-9 insect cells
In words: Differential scanning fluorimetry (DSF). It is filed as binding. Particulars: for Average Tm of BMX with compound: apo-BMX Tm 51.8-52.2 °C; for ΔTm at 100 µM: read-out: ΔTm.
Description: We further characterized the binding interaction between JS24–JS27 and BMX by using differential scanning fluorimetry (DSF) and surface plasmon resonance (SPR). Purified recombinant human BMX protein (hBMX) was first subjected to thermal scanning in the absence and presence of JS24–JS27, and the respective protein melting temperature (Tm) calculated.
Differential Scanning Fluorimetry:
DSF was performed in MicroAmp™ EnduraPlate™ Optical 96 -Well Clear Reaction Plates
with Barcode (Applied Biosystems, Life Technologies, California, USA) using a QuantStudio
7 Flex Real-Time PCR System (Applied Biosystems). Pre-incubation of the protein with the
compound for 2 hours at 4 °C was required prior to DSF experiments. The final reaction mixture
(20 μL of total volume) contained 4 μg of His6-BMX, 4-fold of Protein Thermal Shift™ Dye
(Applied Biosystems) diluted in protein buffer solution, and 100 μM of compound. The
temperatures were obtained by taking the midpoint of each transition.

A further series addresses AXL (Homo sapiens, UniProt P30530). In words: KINOMEscan binding. Particulars: read-out: % Ctrl AXL.
The target of another series is MTOR (Homo sapiens, UniProt P42345). In words: KINOMEscan binding. Particulars: read-out: % Ctrl MTOR.
A short description of series [5]: Dynamic light scattering, colloidal aggregation. The note with it: deionized and filtered water (0.1% DMSO), kinetic from dmso stock, measured at 10 µM, 1 µM and 100 nM, 25 °C, read-out: DLS maximum soluble concentration at which no aggregates are observed. It is filed as physicochemical.
Description: In addition, we measured particle sizes by using dynamic light scattering (DLS).
DLS is measured at 10 µM, 1µM and 100 nM. The maximum soluble
concentration – at which no aggregates are observed - is indicated and the colour code indicates
Dynamic Light Scattering:
Dynamic light scattering (Zetasizer Nano S, Malvern, UK) was used to determine compound colloidal aggregation. […] A 10 mM stock solution of
test compounds was prepared in DMSO, following dilution to deionized and filtered water to
obtain an analyte solution of 10 μM (0.1% DMSO). Colloidal aggregation was measured
through sequential dilutions at 10 μM, 1 μM and 0.1 μM.
Series [6] relates to LNCaP cells. In words: Anti-proliferative co-treatment assays in LNCaP. Type of series: cell-based. The note with it: JS24 3 μM, JS25 5 μM, JS26 6 μM, 5 days; for cell viability reduction: co-treatment with Flutamide (50 μM).
The next series deals with CAOV3. In words: Multi cell line growth assay (CellTiter-Glo, 72 h). Particulars: Homo sapiens, Caov-3, Ovary, ND = no growth inhibition observed. Type of series: cell-based, human.
Series [7] deals with T1, BMX. In words: Kinetic characterization with ADP-Glo kinase assay. It is filed as biochemical. More on the design: purchased Promega Corporation (USA) V4512. Particulars: duplicate, mean ± S.D. An excerpt: The inactivation of BMX occurs in a two-step process that is governed by two parameters: the affinity of the initial non-covalent binding, KI, and the rate of the subsequent covalent bond-forming reaction with the thiol of the cysteine residue, kinact. […]. […] Thus, taking into account that all the analogues have the same Michael acceptor moiety, the enhanced activity must be a result of the structural modifications introduced in the scaffold. […]
Kinetic characterization using an ADP-GLOTM kinase assay:
The BMX enzyme system (Catalog. V4512) and the ADP-GloTM kinase assay were purchased from Promega Corporation (USA). In each kinase reaction, the concentration of BMX was set to 4.5 ng/µL. The peptide substrate Poly (4:1 Glu, Tyr) and ATP concentrations were set to 0.25 mg/mL and 50 µM, respectively. BMX was pre-incubated with different inhibitor concentrations (10-fold serial dilutions, starting at 1 mM), over different time periods (2 - 60 min), before initiating the kinase reactions. Reactions were started by adding 2.5X Poly E4Y1/ATP mixture. The reactions were carried out in a 384-well plate, stopping all at the same time with the addition of 5 µL of ADP-GloTM reagent, to consume the remaining ATP within 40 min. Then, 10 µL of kinase detection reagent was added into the wells and incubated for 30 min to produce a luminescence signal. The signal was measured using an Infinite M200 […]
observed rate constants for inhibition (kobs), at different inhibitor concentrations, were determined from the slope of a semi-logarithmic plot of inhibition versus time, and re-plotted against inhibitor concentration (nM). The experimental values were fitted into a hyperbolic function using GraphPad Prism 8 ([…]), to obtain the KI, kinact, and kinact/KI, as described previously.12 […]
(Thermo Fisher Scientific) using gold-coated glass needles. […]

Setting [8] is: Experiment 4 of Fig. S3 = Fig. 1b, duplicate, mean ± S.D., read-out: BMX inhibition IC50.
Setting [9] is: pH 6.8, PAMPA/Pe effective permeability.
Setting [10] is: co-treatment with LY294002 (3 μM).

Data on two compounds can be found in article PMC8341910, “Structural and biophysical insights into the mode of covalent binding of rationally designed potent BMX inhibitors” (RSC Chemical Biology, 2020).

SMILES strings stand for the structures. ≈ marks a conversion by molar mass, not a printed value. Where “and” joins values, the source holds several entries; their conditions need not be identical. Equal entries are not always repeated. Where two headings read alike, the source gives them in different places.

The IC50 is the concentration needed to halve the response being measured. As usually defined, the GI50 is the concentration that inhibits growth by half. In general, Papp refers to the rate of passage across a membrane or cell layer, normalised by area and donor concentration. Higher therefore signals ready permeation. Broadly, the ΔTm is the shift of the melting midpoint relative to a reference.

Chain of BTK (Q06187 whole entry, species assumed): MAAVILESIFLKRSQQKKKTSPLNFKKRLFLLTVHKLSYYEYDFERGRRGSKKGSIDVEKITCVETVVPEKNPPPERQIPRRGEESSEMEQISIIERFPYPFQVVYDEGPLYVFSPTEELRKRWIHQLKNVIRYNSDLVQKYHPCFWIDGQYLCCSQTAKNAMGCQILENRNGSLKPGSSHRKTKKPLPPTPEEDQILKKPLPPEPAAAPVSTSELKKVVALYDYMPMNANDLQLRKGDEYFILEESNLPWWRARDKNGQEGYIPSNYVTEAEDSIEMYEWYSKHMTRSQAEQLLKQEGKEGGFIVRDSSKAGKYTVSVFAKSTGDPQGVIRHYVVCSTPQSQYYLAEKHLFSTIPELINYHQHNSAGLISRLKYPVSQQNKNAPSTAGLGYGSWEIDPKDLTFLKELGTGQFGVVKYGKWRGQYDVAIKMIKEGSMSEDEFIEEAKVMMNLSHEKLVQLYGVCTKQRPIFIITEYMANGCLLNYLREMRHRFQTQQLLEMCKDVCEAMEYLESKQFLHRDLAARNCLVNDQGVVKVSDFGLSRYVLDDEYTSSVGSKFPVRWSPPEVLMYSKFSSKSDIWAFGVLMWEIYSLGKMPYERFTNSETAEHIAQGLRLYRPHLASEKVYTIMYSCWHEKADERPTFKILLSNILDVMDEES
Chain of MERTK (Q12866 21-999): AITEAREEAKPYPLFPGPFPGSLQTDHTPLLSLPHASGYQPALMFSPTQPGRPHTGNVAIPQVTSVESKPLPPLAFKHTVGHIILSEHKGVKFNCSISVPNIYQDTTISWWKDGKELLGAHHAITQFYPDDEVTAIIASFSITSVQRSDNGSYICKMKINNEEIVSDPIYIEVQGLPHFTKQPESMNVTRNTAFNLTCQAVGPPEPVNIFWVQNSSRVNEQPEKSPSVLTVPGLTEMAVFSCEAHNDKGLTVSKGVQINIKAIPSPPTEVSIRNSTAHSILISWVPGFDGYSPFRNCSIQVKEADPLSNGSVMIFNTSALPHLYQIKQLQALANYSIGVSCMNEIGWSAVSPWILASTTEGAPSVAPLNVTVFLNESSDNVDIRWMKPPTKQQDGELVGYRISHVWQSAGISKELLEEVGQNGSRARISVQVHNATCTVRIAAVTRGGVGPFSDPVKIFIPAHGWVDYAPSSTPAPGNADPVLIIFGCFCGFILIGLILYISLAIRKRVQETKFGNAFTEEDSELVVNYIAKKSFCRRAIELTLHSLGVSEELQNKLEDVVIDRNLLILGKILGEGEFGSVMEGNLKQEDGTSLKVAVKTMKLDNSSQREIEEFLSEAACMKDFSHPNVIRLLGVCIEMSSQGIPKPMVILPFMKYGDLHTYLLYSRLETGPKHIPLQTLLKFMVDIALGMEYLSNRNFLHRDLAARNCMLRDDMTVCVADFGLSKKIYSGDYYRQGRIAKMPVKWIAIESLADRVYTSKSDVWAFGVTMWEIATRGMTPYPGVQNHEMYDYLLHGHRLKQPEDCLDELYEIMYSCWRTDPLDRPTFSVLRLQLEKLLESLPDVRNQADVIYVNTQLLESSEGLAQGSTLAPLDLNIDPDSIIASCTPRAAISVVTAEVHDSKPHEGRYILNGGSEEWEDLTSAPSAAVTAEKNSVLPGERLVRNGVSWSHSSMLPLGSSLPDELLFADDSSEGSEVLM
Chain of PIK3CA (P42336 whole entry): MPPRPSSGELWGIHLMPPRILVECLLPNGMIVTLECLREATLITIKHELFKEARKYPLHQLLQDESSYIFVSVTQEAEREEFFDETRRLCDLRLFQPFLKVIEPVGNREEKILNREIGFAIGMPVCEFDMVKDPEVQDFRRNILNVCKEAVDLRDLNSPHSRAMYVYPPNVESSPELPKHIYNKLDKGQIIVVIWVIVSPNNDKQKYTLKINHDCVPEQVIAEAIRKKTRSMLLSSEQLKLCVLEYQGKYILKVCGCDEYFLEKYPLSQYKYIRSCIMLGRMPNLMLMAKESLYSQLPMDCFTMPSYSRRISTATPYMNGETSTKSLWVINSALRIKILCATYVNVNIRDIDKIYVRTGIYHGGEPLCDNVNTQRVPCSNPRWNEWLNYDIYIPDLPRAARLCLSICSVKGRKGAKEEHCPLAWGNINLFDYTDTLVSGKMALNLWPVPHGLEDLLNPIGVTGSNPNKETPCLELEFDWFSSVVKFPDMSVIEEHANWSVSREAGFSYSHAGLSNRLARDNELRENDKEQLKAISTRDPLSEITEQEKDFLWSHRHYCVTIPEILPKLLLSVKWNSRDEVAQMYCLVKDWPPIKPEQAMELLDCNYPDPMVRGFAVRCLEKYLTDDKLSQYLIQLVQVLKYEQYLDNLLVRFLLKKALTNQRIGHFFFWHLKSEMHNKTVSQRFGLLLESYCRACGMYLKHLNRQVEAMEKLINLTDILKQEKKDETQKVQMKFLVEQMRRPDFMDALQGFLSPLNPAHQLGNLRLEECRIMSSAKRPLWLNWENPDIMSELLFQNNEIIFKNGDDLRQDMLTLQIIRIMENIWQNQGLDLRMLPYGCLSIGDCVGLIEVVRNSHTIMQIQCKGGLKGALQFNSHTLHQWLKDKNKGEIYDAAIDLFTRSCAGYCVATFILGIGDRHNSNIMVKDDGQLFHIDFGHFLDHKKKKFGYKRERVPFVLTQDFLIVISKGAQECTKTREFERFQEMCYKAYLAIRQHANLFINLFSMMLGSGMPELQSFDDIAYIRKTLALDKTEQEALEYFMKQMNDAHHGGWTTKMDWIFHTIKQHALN
Chain of ITK (Q08881 whole entry): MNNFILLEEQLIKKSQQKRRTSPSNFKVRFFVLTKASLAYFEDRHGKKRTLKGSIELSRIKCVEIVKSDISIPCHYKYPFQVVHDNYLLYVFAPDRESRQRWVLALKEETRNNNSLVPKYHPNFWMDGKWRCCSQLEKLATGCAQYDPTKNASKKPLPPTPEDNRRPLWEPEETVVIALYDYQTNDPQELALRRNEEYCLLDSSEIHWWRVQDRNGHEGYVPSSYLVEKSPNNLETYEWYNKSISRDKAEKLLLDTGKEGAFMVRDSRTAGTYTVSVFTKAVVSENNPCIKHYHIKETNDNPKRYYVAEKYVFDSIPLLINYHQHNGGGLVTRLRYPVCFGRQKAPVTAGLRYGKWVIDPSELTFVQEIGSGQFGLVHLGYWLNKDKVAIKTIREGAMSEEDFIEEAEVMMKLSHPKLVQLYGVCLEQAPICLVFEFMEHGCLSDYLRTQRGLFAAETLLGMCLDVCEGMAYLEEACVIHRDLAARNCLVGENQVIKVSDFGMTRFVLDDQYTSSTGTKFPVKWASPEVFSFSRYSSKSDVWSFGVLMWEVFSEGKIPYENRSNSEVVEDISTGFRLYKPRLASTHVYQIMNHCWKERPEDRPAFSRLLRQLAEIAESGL
Chain of AXL (P30530 26-894): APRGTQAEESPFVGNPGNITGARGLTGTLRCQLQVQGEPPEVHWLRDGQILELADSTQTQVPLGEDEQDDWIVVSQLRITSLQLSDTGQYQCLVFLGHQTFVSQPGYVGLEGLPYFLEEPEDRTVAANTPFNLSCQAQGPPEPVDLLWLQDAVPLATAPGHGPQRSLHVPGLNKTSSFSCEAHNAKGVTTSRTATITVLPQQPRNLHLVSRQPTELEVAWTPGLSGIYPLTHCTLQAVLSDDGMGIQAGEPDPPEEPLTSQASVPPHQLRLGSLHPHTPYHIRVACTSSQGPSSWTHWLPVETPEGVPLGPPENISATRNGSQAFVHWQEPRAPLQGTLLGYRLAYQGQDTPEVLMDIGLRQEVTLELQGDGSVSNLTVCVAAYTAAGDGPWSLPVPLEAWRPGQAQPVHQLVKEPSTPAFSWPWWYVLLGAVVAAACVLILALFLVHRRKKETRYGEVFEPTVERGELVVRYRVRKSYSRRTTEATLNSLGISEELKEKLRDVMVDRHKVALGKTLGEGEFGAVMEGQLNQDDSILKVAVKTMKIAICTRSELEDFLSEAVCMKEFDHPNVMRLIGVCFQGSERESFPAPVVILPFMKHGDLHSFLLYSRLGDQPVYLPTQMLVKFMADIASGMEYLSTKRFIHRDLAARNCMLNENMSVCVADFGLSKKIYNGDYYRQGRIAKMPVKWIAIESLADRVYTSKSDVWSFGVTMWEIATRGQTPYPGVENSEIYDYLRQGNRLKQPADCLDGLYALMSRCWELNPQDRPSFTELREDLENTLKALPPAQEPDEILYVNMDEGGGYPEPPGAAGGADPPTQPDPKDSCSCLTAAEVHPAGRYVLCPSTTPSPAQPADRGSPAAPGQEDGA
Chain of TXK (P42681 whole entry): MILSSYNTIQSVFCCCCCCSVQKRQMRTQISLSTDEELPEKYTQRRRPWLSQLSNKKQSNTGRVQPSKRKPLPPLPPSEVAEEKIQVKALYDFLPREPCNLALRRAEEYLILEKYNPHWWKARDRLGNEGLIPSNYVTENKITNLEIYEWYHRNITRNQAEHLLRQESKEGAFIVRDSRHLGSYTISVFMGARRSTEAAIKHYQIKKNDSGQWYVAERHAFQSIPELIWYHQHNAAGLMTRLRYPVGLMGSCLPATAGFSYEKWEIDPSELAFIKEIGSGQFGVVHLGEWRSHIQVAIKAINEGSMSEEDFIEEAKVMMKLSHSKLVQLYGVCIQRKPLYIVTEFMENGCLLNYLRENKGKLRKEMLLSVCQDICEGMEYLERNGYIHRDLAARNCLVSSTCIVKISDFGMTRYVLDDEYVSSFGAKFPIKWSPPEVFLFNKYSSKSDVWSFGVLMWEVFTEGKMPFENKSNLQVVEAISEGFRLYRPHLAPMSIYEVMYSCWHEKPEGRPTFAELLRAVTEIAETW
Description for AXL: (§26) Therefore, we included the whole TEC, EGFR and JAK family in our screening, and the Src family and Lkb1, which also have a cysteine within the same sequence alignment. We also included kinases involved in upstream (Src, FAK, PI3K, mTOR, PDK1) and downstream (Akt, PAK1, TAM) regulation of BMX signaling pathway and non-receptor tyrosine protein kinase Abl.
(§27) Kinome selectivity was performed with DiscoverX KINOMEscan™ technology.
Description for ITK: (§28) Therefore, we included the whole TEC, EGFR and JAK family in our screening, and the Src family and Lkb1, which also have a cysteine within the same sequence alignment.
as §27
Description for MERTK: as §26, §27
Description for MTOR: as §26, §27
Description for PC3 cells: as §1, §2, §3, §4
Description for PIK3CA: as §26, §27
Description for TXK: as §28, §27
Excerpt for in vitro: as §5, §6, §7, §8, §9, §10, §11, §12, §13, §14, §15, §16, §17, §18, §19, §20, §21, §22, §23, §24, §25

As to `C=CC(=O)Nc1cc(C)cc(-n2c(=O)ccc3cnc4cc(-c5ccc(NS(C)(=O)=O)cc5)ccc4c32)c1` [JS25], the concentration for half-maximal inhibition (IC50) at BMX [1] (setting [8]) is 3.5 nM; on BTK, 5.8 ± 0.04 nM. Besides, the remaining binding at 1 µM at PIK3CA is 79%; at ITK, 4.7%; at MERTK, 89%; at TXK it was 3.4%; on AXL it was 93%; at MTOR it was 100%. In addition, the GI50 in the series on LNCaP cells [2] worked out at 6600 nM; in the series with PC3 cells (PC-3, 96 h), 12100 ± 700 nM. The Papp in “in vitro” (pH 6.8, PAMPA permeability) was found to be 3.8 ×10⁻⁶ cm/s; in the series “in vitro” (setting [9]), 3.8 ± 1.6 ×10⁻⁶ cm/s. Moreover, the PAMPA/%R membrane retention in series [3] was found to be 10±18%. Besides, in series [4] (100 μM compound), the “Average Tm of BMX with compound” value is 61.43±0.48 °C. Further, the shift in melting temperature (ΔTm) at 100 µM in series [4] was found to be 9.3 ± 0.48 °C. Further, the solubility in series [5] came to 0.1 µM (≈ 0.0525 µg/mL). Further, the cell viability reduction in the series with LNCaP cells [6] was determined as 63%. Also, the “decrease in cell viability” value with LNCaP cells [6] (setting [10]) amounted to 59%.

Consider `C=CC(=O)Nc1cc(-n2c(=O)ccc3cnc4cc(-c5ccc(NS(C)(=O)=O)cc5)ccc4c32)ccc1C` [JS24], for which the concentration for half-maximal inhibition (IC50) on BMX [1] (Experiment 2 of Fig. S3, control commercial BMX-IN-1, read-out: BMX IC50) is 4.1 ± 0.3 nM; on BMX [1] (setting [8]), 7.5 nM; at BTK it was 11.1 ± 0.8 nM. In addition, the “LE (BMX)” value at BMX [1] (ligand efficiency) is on record as 0.29. For the same compound, the “LipE (BMX)” value at BMX [1] (lipophilic efficiency) was found to be 4.17. The concentration for 50% growth inhibition (GI50) is 1500 nM in the series on LNCaP cells [2] (96-well plates, mean of three experiments in triplicate); 11400 ± 4100 nM with PC3 cells (PC-3, 96 h, 96-well plates, N.d. = no growth inhibition observed within the concentrations tested); 8560 nM with CAOV3. Moreover, the Papp was found to be 6.8 ×10⁻⁶ cm/s in the series “in vitro” (pH 6.8, PAMPA permeability) and 6.8 ± 0.4 ×10⁻⁶ cm/s in the series “in vitro” (setting [9]). The compound further yielded a PAMPA/%R membrane retention in series [3] of 13±1%. In addition, the “BTK potency gain (fold) relative to BMX-IN-1” value at BTK came out at 33 fold. In addition, the “LE (BTK)” value at BTK (ligand efficiency) was 0.29. The “LipE (BTK)” value on BTK (lipophilic efficiency) was determined as 4.00. In [4] (100 μM compound, versus apo-BMX), the ΔTm at 100 µM was determined as 11.34 ± 0.01 °C. Besides, the “Average Tm of BMX with compound” value in [4] (100 μM compound) is 63.57±0.01 °C. Moreover, the k inact at BMX [7] is 0.335 min⁻¹ and 0.335 ± 0.001 min⁻¹. Further, the solubility in [5] is 1 µM (≈ 0.525 µg/mL). For the same compound, the “decrease in cell viability” value with LNCaP cells [6] (co-treatment with AKT1/2 (1 μM), relative to control AKT1/2) stood at 48%; in the series on LNCaP cells [6] (setting [10]), 35%. The cell viability reduction with LNCaP cells [6] worked out at 44%.
